Experiment [1] has as its target T1, GST-pRbABC/E2F complex disrupted by 6×His-HPV1AE7CR2-3 (Homo sapiens, UniProt P06400).
T1 construct: made in house; host or cells: pRb: Sf9; E2F1 and E7: E. coli BL21(DE3)
T1 sequence (P06400 376-928): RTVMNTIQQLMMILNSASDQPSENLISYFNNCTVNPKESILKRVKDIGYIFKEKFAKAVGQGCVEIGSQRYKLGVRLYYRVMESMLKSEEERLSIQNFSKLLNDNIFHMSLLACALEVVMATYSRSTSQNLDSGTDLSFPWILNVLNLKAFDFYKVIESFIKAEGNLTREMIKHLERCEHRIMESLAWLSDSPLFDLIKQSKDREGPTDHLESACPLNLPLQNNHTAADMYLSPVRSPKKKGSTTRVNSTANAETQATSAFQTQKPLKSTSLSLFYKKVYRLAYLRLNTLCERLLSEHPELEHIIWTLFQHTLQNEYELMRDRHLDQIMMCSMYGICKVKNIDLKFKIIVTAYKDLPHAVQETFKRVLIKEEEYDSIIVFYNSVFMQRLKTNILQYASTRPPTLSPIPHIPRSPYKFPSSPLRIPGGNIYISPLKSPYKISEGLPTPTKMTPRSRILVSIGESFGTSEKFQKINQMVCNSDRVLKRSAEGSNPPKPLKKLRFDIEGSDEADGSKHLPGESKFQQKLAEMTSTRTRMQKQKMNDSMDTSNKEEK
T1 sequence (Q01094 243-437 partner limits assumed): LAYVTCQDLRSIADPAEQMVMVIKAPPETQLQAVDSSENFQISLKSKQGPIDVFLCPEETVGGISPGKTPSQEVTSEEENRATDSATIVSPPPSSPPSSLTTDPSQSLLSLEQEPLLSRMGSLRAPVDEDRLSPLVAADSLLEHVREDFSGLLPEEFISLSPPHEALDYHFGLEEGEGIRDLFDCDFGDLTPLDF
Nature of the experiment: ELISA: inhibition of HPV1A-E7-mediated disruption of pRb/E2F complexes. The class given is binding, low risk HPV (type 1A). The following applies: E2F remaining bound to pRb; 500 nM 1AE7. On the procedure: Since HPV-E7 mediates high affinity pRb binding through the association of its L×C×E motif in CR2 to the B domain of pRb, the ability of the thiadiazolidinedione compounds to inhibit the ability of other L×C×E containing viral oncoproteins from disrupting E2F/pRb complexes was tested. The other L×C×E containing viral oncoproteins tested included HPV-E7 from a low risk HPV form (type 1A) and Adenovirus E1A proteins.
(§1) A similar ELISA assay was used to assess the ability of the compounds to inhibit the ability of HPV16-E7-mediated disruption of E2F/pRb complexes. For these studies, 6×His-HPV1AE7CR2-3 and 6×His-Ad5E1ACR1-3, containing the L×C×E motif, were employed. The assay described above was modified in such a way that GST-pRbABC alone was added to HPV-E7CR2-3+ compound, HPV-E7CR2-3+DMSO, Ad5-E1ACR1-3+ compound, or Ad5-E1ACR1-3 DMSO. Mouse monoclonal anti-His antibody (Fisher) diluted 1:10,000 was used to detect how much His-E7CR2-3 remained bound to GST-pRbABC on the plate. Mouse monoclonal Ad5-E1A antibody (Abeam) diluted 1:10,000 was used to detect how much E1ACR1-3 remained bound to GST-pRbABC on the plate. All other steps remained unchanged.
On the technique in general: In an ELISA, binding on a coated surface is turned into a signal by an enzyme label.

A further experiment has as its system SiHa cells. The experiment in a line: Cell cycle and apoptosis in SiHa cells, propidium iodide flow cytometry and morphology. The class given is cell-based. The following applies: 48 hours, 10 μM compound (staurosporine 2 μM); for % Apoptotic / % S: SiHa. How it is done: Since the thiadiazolin-3,5-dione compounds bind to pRb, data was generated regarding their effect in cells infected with HPV. […] DNA content was determined by propidium iodine staining and analysis by flow cytometry.
Cultured cell lines were seeded in 60 mm tissue culture dishes (Falcon) at 1×10^5 cells/well. […] Cells were then trypsinized, washed with phosphate-buffered saline (1.0 mL; PBS), and fixed in ethanol (80%) for 30 minutes on ice. Fixed cells were spun at 500 g for 5 minutes, rehydrated with PBS (1 mL), and spun again to remove any traces of ethanol. Cells were stained with propidium iodide (250 μL; PI), which was prepared by adding PI (100 μL, 2 mg/ml, Sigma) and RNase A (3.5 μL of 30 mg/ml, Sigma) into PBS (10 mL). Cells were then analyzed at the Wistar Institute Flow Cytometry Core Facility using standard equipment, reagents, and methodologies known in the art.
In general terms: In flow cytometry, cells or beads pass a laser one at a time.

Experiment [2] concerns the target T2, GST-pRbABC/6×His-HPV1AE7CR2-3 complex (Homo sapiens, UniProt P06400).
T2 construct: made in house; host or cells: pRb: Sf9; E7: E. coli BL21(DE3)
T2 sequence (P06400 376-928): T1 sequence (P06400 376-928)
The experiment in a line: ELISA: disruption of pRb/HPV1A-E7 complex. The class given is binding, low risk HPV (type 1A). Conditions: disruption of pRb/viral oncoprotein complex; 500 nM 1AE7. On the procedure:
as §1

Experiment [3] deals with T3, GST-pRbABC/6×His-HPV16-E7CR2-3 complex (Homo sapiens, UniProt P06400).
T3 construct: made in house; host or cells: pRb: Sf9; E7: E. coli BL21(DE3)
T3 sequence (P06400 376-928): T1 sequence (P06400 376-928)
The experiment in a line: ELISA: disruption of pRb/HPV16-E7 complex. The class given is binding. Conditions: disruption of pRb/viral oncoprotein complex; 500 nM 16E7. How it is done: An ELISA assay was utilized with modifications such that the amount of 6×His-HPV16-E7CR2-3 remaining bound to the partner protein on the plate could be measured. The compounds identified in Example 2 were purchased (Lankenau Institute for Medical Research) as powders. Their purity was verified by LC/MS and their structures by NMR. IC50 values were then measured for (i) the compounds identified in Example 1, (ii) the compounds prepared according to Examples 3-5, (iii) 2-phenyl-4-methyl-1,2,4-thiadiazolidin-3,5-dione (available from Molport, Latvia), and (iv) 4-benzyl-2-methyl-1,2,4-thiadiazolidin-3,5-dione (TDZD-8; Catalog No. T8325-5MG, Sigma) using the same ELISA-based assay as described for the high-throughput screen, except that the assay was performed manually in 96-well format and so all volumes used were double those from 384-well format.
All compounds were solubilized in DMSO (50 mM) and diluted for use in the ELISA-based assay at a final DMSO concentration of less than 5%. Ten-fold dilutions of thiadiazolin-3,5-dione compound (starting at 100 μM) were added to a mixture containing GST-pRbABC and 6×His-HPV16E7CR2-3. The amount of E7 remaining was determined by adding a primary anti-His antibody. The concentrations of the compounds in the IC50 experiment spanned the range of enzyme activity from no inhibition to complete inhibition. Three independent IC50 measurements were performed for each compound and the average and standard deviation values are reported. All data was imported into the GraphPad® Software (Prism) for IC50 determination. To calculate the IC50 values, the dose-response curves were fit to one-site (Hill slope=1) sigmoidal-dose-response curves.

Each structure is given as a SMILES string.

Broadly, the IC50 is the concentration needed to halve the response being measured. The low end stands for higher potency, the high end for lower potency.

In experiment [1], `Cc1ccccc1-n1sc(=O)n(C)c1=O` [Compound 3] had an IC50 of 4.5 ± 1.7 µM. In the experiment on SiHa cells, the “effect on SiHa cells” value is listed as “most drastically affected”, the “% Apoptotic” value worked out at 6.5% and the “% S” value amounted to 15.4%. This compound also had a 50% inhibitory concentration (IC50) in experiment [2] of 3.4 ± 2 µM. In experiment [3], the IC50 was found to be 0.5 ± 1.5 µM.

`Cc1cc(Cl)ccc1-n1sc(=O)n(C(C)C)c1=O` [Compound 4]: the half-inhibitory concentration (IC50) was 5.5 ± 1.7 µM in experiment [1], 4.7 ± 2.1 µM in experiment [2] and 4.5 ± 1.5 µM in experiment [3]. In addition, the “effect on SiHa cells” value in the experiment on SiHa cells is reported as “most drastically affected”. The “% Apoptotic” value in the experiment with SiHa cells is on record as 15.2%. Further, the “% S” value in the experiment with SiHa cells was 15.8%.

The values above are taken from US9447060B2, “Small molecule modulators of pRb inactivation” (The Wistar Institute of Anatomy and Biology, priority 2011, dated 2016).
